{"source": "patent US20250302973A1", "about": "“POLYMER CONJUGATES OF DRUGS WITH CENTRAL NERVOUS SYSTEM (CNS) EFFECTS AND […] BLOCKING ACTIVITY AND/OR IMMUNE SYSTEM […]” (UNIVERSITY OF PADOVA, priority 2022, published 2025)", "key": {"A-549 cells": {"test_system": "A-549 cells", "test": "A-549 lung cells co-cultured 24 hours with THP-1-derived macrophages, mRNA expression of inflammatory cytokines", "settings": "1 μM; A-549 cells incubated (co-culture) with macrophages derived from THP-1 cells; effect only in presence of macrophages"}, "C57BL6/J male mice": {"test_system": "C57BL6/J male mice", "test": "Open field test, total locomotor activity as distance travelled", "format": "in vivo", "settings": "intraperitoneal 0.3 mg/kg MK-801 or equivalent dose, test 10 min after injection, compared with vehicle, n=7 per group", "protocol": "The present inventors used 7 C57BL6/J male (3-4 months old) mice per treatment group, keeping them in a temperature-controlled room (22° C.) on a 12:12 h light-dark cycle (light on at 7:00 AM) and fed a standard pellet diet and tap water ad libitum. Experimental mice were habituated to the testing room by transferring them to the behavioural room 30 min prior to beginning of the test. The open field test was conducted between 9:00 am and 4:00 pm. MK-801 and derivatives were dissolved in a vehicle composed by 0.9% NaCl physiological solution. Each mouse was singly placed at the corner of a grey-painted open field arena (40×40×30 cm) 10 min after the intraperitoneal injection (Volume of injection 0.1 mL) of either Vehicle, 0.3 mg/kg MK-801, or the equivalent dose of 0.3 mg/kg MK-801 of the PEG 4 MK-801, PEG 6 MK-801, PEG 8 MK-801 or PEG 10 MK-801 derivatives. Using an automated behavioral tracking system (Videotrack, View Point Life Science), we determined the total locomotor activity measured as distance travelled by the animal during the 10 min duration of the test."}}}
{"smiles": "CCC(=O)C(C[C@H](C)N(C)C)(c1ccccc1)c1ccccc1", "note": "[esmethadone, (S)-methadone]", "values": [{"measurement": "mRNA expression of the inflammatory cytokine CCL-2", "setting": "A-549 cells", "result": "reduces"}, {"measurement": "mRNA expression of the inflammatory cytokine IL-1β", "setting": "A-549 cells", "result": "reduces"}]}
{"smiles": "C[C@]12N[C@H](Cc3ccccc31)c1ccccc12", "note": "[MK-801, dizocilpine]", "values": [{"measurement": "distance travelled by the mice during 10 min in the Open Field Test", "setting": "C57BL6/J male mice", "result": "significantly increased"}, {"measurement": "mRNA expression of the inflammatory cytokine CCL-2", "setting": "A-549 cells", "result": "reduces"}, {"measurement": "mRNA expression of the inflammatory cytokine IL-1β", "setting": "A-549 cells", "result": "reduces"}]}
